Results from patent publication US10092648B2, “Selective glucagon-like-peptide-2 (GLP-2) analogues” (Zealand Pharma A/S, priority 2006, dated 2018).
Values joined by “and” are separate entries in the source; they are usually repeats but may differ in a detail not shown here. Equal values may be shown once.

Assays:
male C57BL mice [1] = experiment: In vivo stimulation of intestinal growth, 200 nmol/kg (Example 11); details: for Sensitivity index Si/Colon: relative to 1559
Procedure: The ability of further compounds to selectively stimulate small intestinal mass, relative to colon mass was determined in male C57BL mice. A similar protocol was used to that described above in Example 10 except that 200 nmol/kg of each compound was administered per day. Thus, individual groups (n=6-10) of mice were given 200 nmol/kg of each compound, s.c, once daily for three consecutive days. Other groups of animals were given either an equimolar dose of [[…]]GLP-2 (reference compound) or vehicle (phosphate buffered saline, pH 7.4; negative controls) in the same dosing regimen. Twenty-four hours after the last dose of compound the mice were sacrificed and the stomach, small intestine and the colon emptied and weighed.

male C57BL mice [2] = experiment: In vivo stimulation of stomach growth, 200 nmol/kg (Example 12)
Procedure: The effects of the test compounds according to the invention were determined based on the ability of the peptides to selectively increase stomach mass, relative to vehicle control. The ability of the present compounds (ZP2395, ZP2396, ZP2400, ZP2412, ZP2394 and ZP2401) to selectively stimulate stomach mass, relative to colon mass was determined in male C57BL mice. Individual groups (n=6-10) of mice were given 200 nmol/kg of each compound, s.c, once daily for three consecutive days. For comparison purposes other groups of animals were given either an equimolar dose of [[…]]GLP-2 or vehicle (phosphate buffered saline, pH 7.4) in the same dosing regimen. Twenty-four hours after the last dose of compound had been given the mice were sacrificed and the stomach and small intestine (from the pylorus to the ileocaecal junction) emptied and weighed. To correct for slight difference in body weight (BW), the organ mass of the stomach is presented relative to BW. […] To evaluate the differential growth pattern induced by ZP compounds, compared to [[…]]GLP-2, on the stomach, the stomach-colon sensitivity index of compound X was calculated as: (Stomach/Colon)x/Stomach/(Colon)[[…]]GLP-2% Compounds with a stomach/colon sensitivity greater than or equal to 1.05 were considered relatively selective for the stomach.

[3] = 200 nmol/kg s.c. once daily for 3 days
[4] = colon weight relative to body weight, relative to ZP1559
[5] = small intestine weight relative to body weight, relative to ZP1559
[6] = 200 nmol/kg s.c. once daily for 3 days, relative to 1559

Substance	Colon-BW, compared to 1559 in % (male C57BL mice [1]; [3])	Preferential stimulation of epithelial growth in the small intestine (summary) (male C57BL mice [1]; [3])	SI-BW, compared to 1559 in % (male C57BL mice [1]; [3])	Selectivity for small intestinal mass relative to colon mass (FIG. 6) (male C57BL mice [1]; [3])	Sensitivity index Si/Colon (male C57BL mice [1]; [3])	Colon-BW, compared to 1559 in % (male C57BL mice [1]; [4])	SI-BW, compared to 1559 in % (male C57BL mice [1]; [5])	Sto-BW, compared to 1559 in % (male C57BL mice [2]; [3])	Sensitivity index Stomach/Co (male C57BL mice [2]; [6])	Sensitivity index Stomach/Co (male C57BL mice [2]; ratio Stomach-BW / Colon-BW)	Organ selectivity (FIG. 8, unselective compounds) (male C57BL mice [1]; [3])	Preferential stimulation of epithelial growth in the stomach (summary) (male C57BL mice [2]; [3])	Selectivity for stomach mass relative to colon mass (FIG. 7) (male C57BL mice [2]; [3])
H-HGEGSFSDELSTILEALAAADFIAWLIATKITD-NH2 [ZP2420]	101%	preferentially stimulating epithelial growth in the small intestine	112%	selectively increase small intestinal mass, relative to colon mass	1.11	101%	112%	90%	0.89	0.89	–	–	–
H-HGEGSFSDELSTILESLAASDFISWLISTKITDKKKKKK-NH2 [ZP2380]	102%	preferentially stimulating epithelial growth in the small intestine	108%	selectively increase small intestinal mass, relative to colon mass	1.06	102%	108%	98%	0.96	0.96	–	–	–
H-HGEGSFSDELATILESLAASDFISWLISTKITD-NH2 [ZP2399]	103%	preferentially stimulating epithelial growth in the small intestine	119%	selectively increase small intestinal mass, relative to colon mass	1.16	103%	119%	115%	1.12	1.12	–	–	–
H-HGEGSFSDELATILEALAAADFISWLIATKITD-NH2 [ZP2418]	100%	preferentially stimulating epithelial growth in the small intestine	117%	selectively increase small intestinal mass, relative to colon mass	1.17	100%	117%	91%	0.91	0.91	–	–	–
H-HGEGSFSDELATILESLAAADFISWLIATKITDKKKKKK-NH2 [ZP2413]	117%	–	116%	–	0.99	–	–	108%	0.92	–	unselective for the small intestine, colon or stomach	–	–
H-HGEGSFSDELATILEALAAADFIAWLISTKITDKKKKKK-NH2 [ZP2384]	118%	preferentially stimulating epithelial growth in the small intestine	128%	selectively increase small intestinal mass, relative to colon mass	1.08	118%	128%	100%	0.85	0.85	–	–	–
H-HGEGSFSDELNTILESLAASDFISWLISTKITDKKKKKK-NH2 [ZP2382]	106%	–	103%	–	0.97	–	–	101%	0.95	–	unselective for the small intestine, colon or stomach	–	–
H-HGEGSFSDELATI LEALAASDFIAWLIATKITDKKKKKK-NH2 [ZP2423]	109%	preferentially stimulating epithelial growth in the small intestine	123%	selectively increase small intestinal mass, relative to colon mass	1.13	109%	123%	94%	0.86	0.86	–	–	–
H-HGEGSFSDELLTILELLAAADFIAWLIATKITDKKKKKK-NH2 [ZP2412]	99%	–	94%	–	0.95	99%	94%	106%	1.07	1.07	–	preferentially stimulating epithelial growth in the stomach	selectively increase stomach mass, relative to colon mass
H-HGEGSFSDELSTILEALAAADFIAWLIATKITDKKKKKK-NH2 [ZP2404]	115%	–	114%	–	0.99	–	–	103%	0.90	–	unselective for the small intestine, colon or stomach	–	–
H-HGEGSFSDELLTILELLAALDFIAWLIATKITDKKKKKK-NH2 [ZP2416]	92%	–	89%	–	0.97	–	–	96%	1.04	–	unselective for the small intestine, colon or stomach	–	selectively increase stomach mass, relative to colon mass
H-HGEGSFSDELETILEELAAEDFIEWLIETKITDKKKKKK-NH2 [ZP2378]	97%	–	91%	–	0.94	–	–	94%	0.97	–	unselective for the small intestine, colon or stomach	–	–
H-HGEGSFSDELSTILEALAASDFISWLISTKITD-NH2 [ZP2398]	97%	preferentially stimulating epithelial growth in the small intestine	108%	selectively increase small intestinal mass, relative to colon mass	1.11	97%	108%	102%	1.05	1.05	–	–	–
H-HGEGSFSDELFTILEFLAASDFISWLISTKITD-NH2 [ZP2401]	88%	–	98%	–	1.11	88%	98%	107%	1.22	1.22	–	preferentially stimulating epithelial growth in the stomach	selectively increase stomach mass, relative to colon mass
H-HGEGSFSDELATILEALAASDFIAWLIATKITD-NH2 [ZP2417]	106%	preferentially stimulating epithelial growth in the small intestine	119%	selectively increase small intestinal mass, relative to colon mass	1.12	106%	119%	90%	0.85	0.85	–	–	–
H-HGEGSFSDELFTILEFLAASDFISWLISTKITDKKKKKK-NH2 [ZP2396]	102%	–	104%	–	1.02	102%	104%	117%	1.15	1.16 and 1.15	–	preferentially stimulating epithelial growth in the stomach	selectively increase stomach mass, relative to colon mass
H-HGEGSFSDELSTILESLAAADFIAWLIATKITDKKKKKK-NH2 [ZP2403]	109%	–	110%	–	1.01	–	–	107%	0.98	–	unselective for the small intestine, colon or stomach	–	–
